Data published in patent US7087623B2, “Thiazole and other heterocyclic ligands for mammalian dopamine, muscarinic and serotonin receptors and transporters, and methods of use thereof” (Sepracor Inc., priority 2001, dated 2006).
Where two headings read alike, the source gives them in different places.

Key:
[1] = target: T1, human serotonin 5-HT2A receptor (Homo sapiens, UniProt P28223); experiment: Radioligand binding assay, human 5-HT2A receptors ([3H]Ketanserin)
T1 construct: expressed in transfected cells; host or cells: CHO-K1

[2] = target: T2, human serotonin 5-HT2C receptor (Homo sapiens, UniProt P28335); experiment: Radioligand binding assay, human 5-HT2C receptors ([3H]Mesulergine)
T2 construct: expressed in transfected cells; host or cells: CHO-K1
T2 sequence (P28335 33-458): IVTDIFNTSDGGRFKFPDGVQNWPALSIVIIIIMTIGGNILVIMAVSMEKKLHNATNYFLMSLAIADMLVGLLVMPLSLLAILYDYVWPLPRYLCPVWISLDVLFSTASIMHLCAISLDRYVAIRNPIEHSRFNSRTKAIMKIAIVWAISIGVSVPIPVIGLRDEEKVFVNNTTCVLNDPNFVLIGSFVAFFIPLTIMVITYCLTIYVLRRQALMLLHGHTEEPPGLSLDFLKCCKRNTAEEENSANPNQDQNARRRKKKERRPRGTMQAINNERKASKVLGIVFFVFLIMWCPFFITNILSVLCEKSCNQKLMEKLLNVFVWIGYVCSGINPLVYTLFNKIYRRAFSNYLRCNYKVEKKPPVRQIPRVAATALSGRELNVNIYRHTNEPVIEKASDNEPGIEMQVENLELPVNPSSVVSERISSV
How it was run: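 Membranes from CHO-K1 cells stably expressing human 5-HT2C receptor were prepared in modified Tris-HCl pH 7.7 buffer. Non-specific binding was defined with 1 μM mianserin.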

Wistar rats = experiment: Acute toxicity assessment (maximum tolerated dose) in Wistar rats, i.v.; assay type: in vivo; details: observed 72 hours
Description: An in vivo evaluation was carried out to determine the maximum tolerated dose of certain compounds in Wistar rats (male and female weighing ˜[…]). The compounds were administered i.v. and the animals were then observed for 72 hours. Compounds 37, 93, and 112 were solubilized in 5% dextrose (w/v)/polyethylene glycol 400 (4:1 v/v).

[3] = human 5-HT2a, Example 16 table, read-out: IC50 (nM) 5-HT2a
[4] = human 5-HT2c, Example 16 table, read-out: IC50 (nM) 5-HT2c
[5] = human, Example 100 table, read-out: IC50 (nM) 5-HT2A
[6] = human, Example 100 table, read-out: IC50 (nM) 5-HT2C

T1 sequence (P28223 whole entry): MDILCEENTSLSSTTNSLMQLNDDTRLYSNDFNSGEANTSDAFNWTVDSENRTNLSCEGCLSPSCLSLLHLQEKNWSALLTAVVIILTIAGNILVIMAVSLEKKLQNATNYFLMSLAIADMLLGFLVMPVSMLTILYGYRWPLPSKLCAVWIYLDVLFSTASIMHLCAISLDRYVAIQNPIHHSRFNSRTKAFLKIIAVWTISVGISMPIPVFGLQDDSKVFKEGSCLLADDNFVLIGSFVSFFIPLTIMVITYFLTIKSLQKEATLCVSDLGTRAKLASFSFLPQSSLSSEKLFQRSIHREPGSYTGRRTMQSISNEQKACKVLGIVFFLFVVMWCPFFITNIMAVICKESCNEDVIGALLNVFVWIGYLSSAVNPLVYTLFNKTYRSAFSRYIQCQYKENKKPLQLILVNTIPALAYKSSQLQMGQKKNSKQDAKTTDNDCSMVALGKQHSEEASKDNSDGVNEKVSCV

`CN1CCN(c2nc(C3(c4csc5ccc(Cl)cc45)CCOCC3)cs2)CC1` [Compound 36] showed an IC50 [1, 3] greater than 1000 nM and an IC50 [2, 4] of less than 1000 nM.
In the case of `CN1CCN(c2nc(C3(c4ccccc4F)CCCC3)cs2)CC1` [Compound 93], the IC50 [1, 3] is reported as less than 1000 nM, the IC50 [2, 4] is reported as less than 100 nM and the “Tolerability and mortality after 72 h” value (Wistar rats; 60 mg/kg i.v.) is reported as “well tolerated by the animals and did not cause any mortality”.
With `Clc1ccc(C2(c3csc(N4CCNCC4)n3)CCOCC2)cc1` [Compound 37] the IC50 [1, 3] was less than 1000 nM, the IC50 [2, 4] was less than 1000 nM and the “Tolerability and mortality after 72 h” value (Wistar rats; 60 mg/kg i.v.) was “well tolerated by the animals and did not cause any mortality”.
`CN1CCN(c2nc(C3(c4ccccc4F)CCCCC3)cs2)CC1` [Compound 83] gave an IC50 [1, 3] greater than 1000 nM and an IC50 [2, 4] of less than 100 nM.
In the case of `CN1CCN(c2nc(C3(c4ccccc4F)CCOCC3)cs2)CC1` [Compound 112], the “Tolerability and mortality after 72 h” value (Wistar rats; 30 mg/kg i.v.) is reported as “well tolerated by the animals and did not cause any mortality”.
In the case of `CN1CCN(c2nc(C3(c4cccc(Cl)c4)CCOCC3)cs2)CC1` [Compound 63], the IC50 [1, 3] is reported as greater than 1000 nM and the IC50 [2, 4] is reported as less than 1000 nM.
`CN1CCCC1CCNc1nc(C2(c3ccccc3F)CCCCC2)cs1` (single isomer, unassigned) [Compound 130, {4-[1-(2-fluorophenyl)-cyclohexyl]-thiazol-2-yl}-[2-(1-methyl-pyrrolidin-2-yl)-ethyl]-amine] showed an IC50 [1, 5] of less than 100 nM and an IC50 [2, 6] of less than 10 nM.
Molecule `CN1CCCC1CCNc1nc(C2(c3ccccc3F)CCCCC2)cs1` (racemic) [Compound 128, {4-[1-(2-fluorophenyl)-cyclohexyl]-thiazol-2-yl}-[2-(1-methyl-pyrrolidin-2-yl)-ethyl]-amine] has an IC50 [1, 5] of less than 100 nM and an IC50 [2, 6] of less than 10 nM.
Molecule `CN1CCN(c2nc(C3(c4ccccc4)CCOCC3)cs2)CC1` [Compound 59] has an IC50 ([1]; IC50 (nM) 5-HT2a, human 5-HT2a, Example 16 table) greater than 1000 nM and an IC50 ([2]; IC50 (nM) 5-HT2c, human 5-HT2c, Example 16 table) greater than 1000 nM.
